Values of other authors, collected in US7727979B2, “Guanidine derivatives and their use as neuropeptide FF receptor antagonists” (Actelion Pharmaceuticals Ltd., priority 2003, dated 2010).

System: human and rat-NPFF1 receptor

Structure (SMILES): NC(N)=NCCC[C@@H](NC(=O)C(c1ccccc1)c1ccccc1)C(=O)NCc1ccc(O)cc1 [BIBP3226]
- times higher affinity to NPFF1 receptor than to the corresponding NPFF2 receptors: 10-60 times
